The values that follow come from article PMC8980233, “Differentiating the Neuropharmacological Properties of Nicotinic Acetylcholine Receptor-Activating Alkaloids” (Frontiers in Pharmacology, 2022).

“Also recorded” adds a separate entry of the source.

The target of assay [1] is T1, α7 nAChR (Homo sapiens, UniProt P36544). Description: Radioligand displacement binding assay.
Method: All binding and functional assays for molecular target characterization were conducted by Eurofins Cerep SA (Celle-Lévescault, France) and Eurofins Panlabs Discovery Services Taiwan, Ltd. (New Taipei City, Taiwan) using their standard in vitro binding and functional assays (Supplementary Material S2). […] Negative values were considered to be an artifact arising from, for example, compounds interfering with the assay readout.
The radioligand displacement binding assays employed the gold standard filtration method using membrane preparations from stable cell lines (HEK-293 or CHO cells) expressing human or rodent target proteins to determine the interaction of the compounds with specific receptors, channels, and transporters. For this purpose, the competitive binding of test compounds against a [^125I]- [^3H]-, or [^35S]-labelled agonist and/or antagonist was determined.
Assay Source Ligand Conc. Kd Non Specific Incubation Detection Bibl.
N neuronal α7 (h) SH-SY5Y cells [125I]α-bungarotoxin 0.05 nM 0.34 nM α-bungarotoxin 120 min Scintillation 347
(antagonist radioligand) (human (1 µM) 37°C counting
Assay [2] deals with T1, α7 nAChR. Put plainly: nAChR functional assay, automated patch-clamp. It counts as cell-based. The conditions noted are these: mean ± S.D.; no effect = up to 33 μM. As for the experimental part: Electrophysiological responses were recorded using an automated patch-clamp Patchliner Octo® system (Nanion Technologies, Munich, Germany) equipped with two EPC-10 Quadro patch-clamp amplifiers (HEKA Elektronik, Lambrecht, Germany) as described by ([Alijevic et al., 2020]). In brief, Chinese hamster ovary (CHO) or human embryonic kidney-293 (HEK-293) cells stably expressing human nAChRs (Charles River Laboratories, Wilmington, MA, United States) were maintained in DMEM/F12 medium (Gibco, Thermo Fisher Scientific, Waltham, MA, United States) supplemented with 10% heat-inactivated fetal bovine serum (FBS; Gibco) and penicillin–streptomycin (100 U/mL and 0.1 mg/ml, respectively; Sigma-Aldrich, St. Louis, MO, United States) at 37°C in 5% CO2 and 70% humidity. The following selection antibiotics were used for the cell lines: G418 (0.25 mg/ml; Sigma-Aldrich) and Zeocin^TM (0.4 mg/ml; InvivoGen, San Diego, CA, United States) for α7/Ric3 nAChR and α3β4 nAChR cells; puromycin (8 μg/ml; InvivoGen) and hygromycin B (0.4 mg/ml; Gibco) for α4β2 nAChR cells; and G418 (0.5 mg/ml), puromycin (0.25 μg/ml), and hygromycin B (0.02 mg/ml) for α6/3β2/β3 nAChR cells. The cells were used for characterizing nAChR pharmacology, because no endogenous ionotropic nicotinic receptors are found ([Roncarati et al., 2008]; [Papke and Smith-Maxwell, 2009]; [Kirsch et al., 2016]; [Scheffel et al., 2018]). The subunit distributions in the cells have been previously described ([Alijevic et al., 2020]). The human nAChRs were selected due to the lack of commercially available nAChR expression systems for mouse or zebrafish. The translatability of findings between zebrafish and human nAChR activities have been previously reported ([Papke and Smith-Maxwell, 2009]; [Papke et al., 2012]; [Alijevic et al., 2020]).
On the day of the experiment, nAChR-expressing cells were suspended in extracellular solution (in mM: 140 NaCl, 4KCl, one MgCl2, two CaCl2, five glucose, and 10 HEPES, adjusted to pH 7.4 with NaOH (298 mOsmol)), then placed in the Patchliner Octo® system. The internal solution contained in mM: 50 KCl, 60 kF, 10 NaCl, 20 EGTA, and 10 HEPES, adjusted to pH 7.2 with KOH (285 mOsmol). […] Data were analyzed using the Patchmaster software and corrected for leak current. The data acceptance criteria were as follows: seal resistance >100 MΩ; seal resistance loss variation <50%; access resistance <20 MΩ; and minimum current amplitude elicited by maximal effect concentration acetylcholine >50 pA. Offline data analysis was performed in OpenOffice™ (v4.1.2; The Apache Software Foundation, Wakefield, MA, United States). Data are presented as mean ± S.D. All experiments were performed at room temperature (24°C) and repeated at least three times. Igor Pro (v6.2.2.2; WaveMetrics, Lake Oswego, OR, United States) or Prism (v8.2.1) were used for assessing the concentration–response curves.

T1 sequence (P36544 23-502): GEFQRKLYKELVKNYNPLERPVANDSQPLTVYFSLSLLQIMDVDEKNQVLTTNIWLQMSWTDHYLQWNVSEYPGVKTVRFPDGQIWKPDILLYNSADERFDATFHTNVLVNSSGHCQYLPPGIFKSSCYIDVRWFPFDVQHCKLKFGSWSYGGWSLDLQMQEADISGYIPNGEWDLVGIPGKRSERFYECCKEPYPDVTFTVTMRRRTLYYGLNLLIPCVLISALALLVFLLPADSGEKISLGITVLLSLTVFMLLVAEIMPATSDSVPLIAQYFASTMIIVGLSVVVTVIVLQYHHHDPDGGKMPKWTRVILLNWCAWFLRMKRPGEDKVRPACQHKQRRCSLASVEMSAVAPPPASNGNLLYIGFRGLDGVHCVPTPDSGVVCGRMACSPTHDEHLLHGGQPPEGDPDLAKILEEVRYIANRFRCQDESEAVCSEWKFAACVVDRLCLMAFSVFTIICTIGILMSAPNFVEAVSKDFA

As to `CN1C(=O)CC[C@H]1c1cccnc1` [Cotinine, (-)-cotinine], the “binding for α7 nAChR” value on α7 nAChR [1] is given as “undetectable”. The “α7 nAChR EC50 in µM” value on α7 nAChR [2] is recorded as “no detectable activities; also recorded: No effect*”.
